Test results taken from patent publication US7166706B2 (priority 2001, dated 2007).
Read-outs that look alike come from different tables or passages of the source.

Columns and labels:
[1] = tested on: Magnaporthe grisea strain P1.2; format: cell-based; settings: for mean percentage of growth of the M. grisea fungus: 5th day, control = 100%
yeast reductoisomerase [2] = target: T1, yeast reductoisomerase (Saccharomyces cerevisiae, UniProt P06168); experiment: Stoichiometry of binding of the inhibitors to the yeast reductoisomerase; format: biochemical; settings: for stoichiometry of binding of the inhibitor to the yeast reductoisomerase: 0.1 nmol inhibitor completely inhibits 0.1 nmol enzyme; for type of inhibition (reversibility): yeast reductoisomerase
Experimental: FIGS. 6A and 6B: Stoichiometry for binding of the inhibitors dimethylphosphinoyl-2-hydroxyacetate and N-hydroxy-N-isopropyloxamate to the yeast reductoisomerase. The inhibitors Hoe 704 [A] and IpOHA [B] (0.1 nmol) are incubated with varying amounts of enzyme (0 to 0.4 nmol) for 20 minutes at 25° C. with 25 nmol of NADPH and 0.25 μmol of Mg^2+ in a volume of 10 μl. The enzyme activity measurements are carried out at 25° C. in 1 ml of the following reaction medium: 10 mM MgCl2, 250 μM NADPH, 0.48 mM AHB, and in 50 mM sodium Hepes buffer, pH 7.5.
The kinetic parameters for the yeast reductoisomerase were determined by following the evolution of the enzyme reaction in the spectrophotometer under saturating conditions with respect to magnesium, to NADPH and to AHB or AL substrate. All the enzyme activity measurements were carried out in a quartz cuvette with an optical path of 1 cm, containing sodium Hepes buffer (50 mM, pH 7.5), 10 mM MgCl2, 250 μM NADPH, in a final volume of 1 ml, at 25° C. The enzyme reaction was initiated by adding 0.48 mM of AHB or of AL. The evolution of this reaction was followed by virtue of the decrease in absorption of NADPH at 340 nm.
The study of the stoichiometry of binding of the inhibitors N-hydroxy-N-isopropyl-oxamate and dimethylphosphinoyl-2-hydroxyacetate was carried out by incubating varying amounts of enzyme (from 0.1 to 0.4 nmol) with a constant amount of inhibitor for 20 minutes, with 25 nmol of NADPH and 0.25 μmol of MgCl2, in a final volume of 10 μl. The reactions are initiated by adding 0.48 mM AHB in 50 mM sodium Hepes buffer, pH 7.5, containing 10 mM MgCl2.
In the presence of 0.1 nmol of dimethylphosphinoyl-2-hydroxyacetate, an enzyme activity is detected only with amounts of enzyme greater than […]. Similarly, in the presence of 0.1 nmol of N-hydroxy-N-isopropyloxamate, an enzyme activity is detected only for amounts of enzyme greater than 0.1 nmol (FIG. 6). In addition, for these two inhibitors, when the enzyme is in excess relative to the inhibitor in the reaction medium, the enzyme activities increase in parallel with those of the control without inhibitor. […] In fact, in the case of irreversible inhibition, in the presence of a low amount of enzyme, all the enzyme complexes with the inhibitor. The enzyme activity is then zero, since there is no longer any free enzyme in the reaction medium. When the amount of enzyme present in the reaction medium is greater than the amount of inhibitor, the free enzyme in excess in the medium then behaves like the control without inhibitor (straight line parallel to the control).

yeast reductoisomerase [3] = target: T1, yeast reductoisomerase; experiment: Kinetics of inhibition of the yeast reductoisomerase (NADPH absorbance at 340 nm); format: biochemical; settings: for mechanism of inhibition with respect to the AHB substrate: 1/m3 linear in AHB concentration, enzyme 110 nM; for k0, inhibitor/enzyme association constant: yeast reductoisomerase 110 nM, 25° C., pH 7.5, AHB varied
Experimental: (§1) FIGS. 7A and 7B: Kinetics of inhibition of the yeast reductoisomerase in the presence of the inhibitors dimethylphosphinoyl-2-hydroxyacetate [A] and N-hydroxy-N-isopropyloxamate [B]. The enzyme activity measurements are carried out at 25° C. in 1 ml of the following reaction medium: 10 mM MgCl2, 250 μM NADPH, 0.48 mM AHB in 50 mM sodium Hepes buffer, pH 7.5, and in the presence of enzyme 110 nM.
The reactions are initiated by simultaneously adding varying amounts of inhibitors dimethylphosphinoyl-2-hydroxyacetate [A] and N-hydroxy-N-isopropyloxamate [B] (from 2 μM to 30 μM) to the reaction medium. The curves are plotted according to the equation (1), which makes it possible to determine the values for Kobs, the apparent rate of formation of the enzyme-inhibitor complex.
as §1, with “FIGS. 8A and 8B:” for “FIGS. 7A and 7B:”, “8A and 8B: Kinetics of” for “7A and 7B: Kinetics of”, “of enzyme at 110 nM.” for “of enzyme 110 nM.”
The reactions are initiated by simultaneously adding varying amounts of inhibitors [A] and [B] (from 2 μM to 50 μM) to the reaction medium.
FIGS. 9A and 9B: Determination of the association constant k0 for the dimethylphosphinoyl-2-hydroxyacetate [A] and for the N-hydroxy-N-isopropyloxamate [B] on the yeast reductoisomerase using the representation 1/Kobs as a function of the concentration of substrate AHB. The enzyme activity measurements are carried out at 25° C. in 1 ml of the following reaction medium: 10 mM MgCl2, 250 μM NADPH, from 125 μM to 2.375 mM AHB, and in 50 mM sodium Hepes buffer, pH 7.5, and in the presence of enzyme at 110 nM. The reactions are initiated by simultaneously adding varying amounts of substrate AHB (from 125 μM to 2.375 mM) and the inhibitors [A] (10 μM) and [B] (15 μM) to the reaction medium.
The curves are plotted according to the equation (3), which makes it possible to determine the values for k0, the rate of association of the inhibitor with the enzyme.
The effect of the inhibitors N-hydroxy-N-isopropyloxamate and dimethylphosphinoyl-2-hydroxyacetate on the yeast reductoisomerase was followed over time by measuring the decrease in absorbence of NADPH at 340 nm, in a spectrophotometer. […]
Equation (1): OD340=m1+(m2−m1).e^(−m3.t) where the parameters are as follows: • OD340 is the optical density measured on a spectrophotometer at 340 nm at time “t” • m1 the optical density when “t” tends toward infinity • m2 the initial optical density • m3 the product of the concentration of inhibitor multiplied by the apparent disappearance constant for NADPH. […]

plant reductoisomerase = plant reductoisomerase (Spinacia oleracea, UniProt Q01292); settings: cited from earlier work
M. grisea spores = format: cell-based, Magnaporthe grisea
Botrytis cinerea = format: cell-based
Pythium ultimum = format: cell-based
Ustilago nuda = format: cell-based
[4] = tested on: Mycosphaerella graminicola; format: cell-based
[5] = tested on: all the sensitive fungal species; format: cell-based
[6] = Magnaporthe grisea, liquid minimum medium (Table 5; text gives concentrations in μM)

T1 sequence (P06168 48-395): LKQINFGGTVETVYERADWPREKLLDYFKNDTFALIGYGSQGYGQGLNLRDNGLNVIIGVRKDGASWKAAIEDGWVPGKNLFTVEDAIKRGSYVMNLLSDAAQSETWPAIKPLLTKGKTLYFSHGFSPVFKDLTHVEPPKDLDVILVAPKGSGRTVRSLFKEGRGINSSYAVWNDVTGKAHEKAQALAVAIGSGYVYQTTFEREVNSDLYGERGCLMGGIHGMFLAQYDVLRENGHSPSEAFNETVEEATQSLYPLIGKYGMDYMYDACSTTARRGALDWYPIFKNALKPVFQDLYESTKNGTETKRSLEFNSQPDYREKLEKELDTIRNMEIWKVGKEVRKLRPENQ
Chain of plant reductoisomerase (Q01292 73-595): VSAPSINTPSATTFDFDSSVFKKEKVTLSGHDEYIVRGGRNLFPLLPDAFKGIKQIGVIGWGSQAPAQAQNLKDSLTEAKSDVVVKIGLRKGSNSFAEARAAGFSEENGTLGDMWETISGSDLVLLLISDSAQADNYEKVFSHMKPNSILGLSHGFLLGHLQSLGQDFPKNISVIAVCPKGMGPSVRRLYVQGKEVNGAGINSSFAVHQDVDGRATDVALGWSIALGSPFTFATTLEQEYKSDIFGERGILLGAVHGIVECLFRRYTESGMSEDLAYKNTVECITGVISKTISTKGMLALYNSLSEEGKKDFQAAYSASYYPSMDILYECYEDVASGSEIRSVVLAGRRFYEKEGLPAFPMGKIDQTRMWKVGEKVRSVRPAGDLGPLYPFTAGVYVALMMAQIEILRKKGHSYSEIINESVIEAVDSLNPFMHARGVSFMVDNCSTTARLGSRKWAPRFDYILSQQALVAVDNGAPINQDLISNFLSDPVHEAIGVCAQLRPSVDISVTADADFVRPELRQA

With `CP(C)(=O)C(O)C(=O)O` (centres unmarked) [dimethylphosphinoyl-2-hydroxyacetate] the “decrease in growth compared to control without inhibitor” value ([1]; inhibitor at 2 mM, MM medium, 6th and 7th day of growth) was 50%, the “stoichiometry of binding of the inhibitor to the yeast reductoisomerase” value (yeast reductoisomerase [2]) was 1 mol of inhibitor per mole of enzyme and the “type of inhibition (reversibility)” value (yeast reductoisomerase [2]) was “irreversible inhibitors”. The “mechanism of inhibition with respect to the AHB substrate” value (yeast reductoisomerase [3]) was “competitive”, the “k0, inhibitor/enzyme association constant” value (yeast reductoisomerase [3]) was 7721 M⁻¹ s⁻¹ and the “k0, inhibitor/enzyme association constant” value (plant reductoisomerase) was 22 000 M^−1.s^−1.

With `CC(C)N(O)C(=O)C(=O)O` [N-hydroxy-N-isopropyloxamate] the “mean percentage of growth of the M. grisea fungus” value (“mean percentage” for short) ([1]; 0.03 μM inhibitor, MM + leucine, valine, isoleucine 0.3 mM (MM + ILV)) was 77.5%, the “mean percentage” value ([1]; 0.03 μM inhibitor, minimum medium (MM)) was 92% and the “mean percentage” value ([1]; 0.1 μM inhibitor, MM + ILV 0.3 mM) was 83.5%. For the same compound, the “mean percentage” value ([1]; 0.1 μM inhibitor, minimum medium (MM)) was 89%, the “mean percentage” value ([1]; 0.3 μM inhibitor, MM + ILV 0.3 mM) was 81% and the “mean percentage” value ([1]; 0.3 μM inhibitor, minimum medium (MM)) was 72%. For the same compound, the “mean percentage” value ([1]; 1 μM inhibitor, MM + ILV 0.3 mM) was 72.5%, the “mean percentage” value ([1]; 1 μM inhibitor, minimum medium (MM)) was 56% and the “mean percentage” value ([1]; 3 μM inhibitor, MM + ILV 0.3 mM) was 71.5%. The “mean percentage” value ([1]; 3 μM inhibitor, minimum medium (MM)) was 13%, the “toxicity on growth when minimum medium is supplemented with valine, leucine and isoleucine” value ([1]; ILV at 0.3 mM, whatever the inhibitor concentration) was “lifted” and the “Level of sensitivity to IpOHA” value ([1]; Magnaporthe grisea) was “Sensitive”. For the same compound, the “ID50: concentration which inhibits fungal growth by 50%” value [1, 6] was 1, the “ID80: concentration which inhibits fungal growth by 80%” value [1, 6] was 3 and the “inhibition of fungal growth” value ([1]; inhibitor 0.3 to 1 μM, MM medium, from the 3rd day) was “approximately 50%”. The “ID80 (concentration of inhibitor such that the inhibition in fungal growth is 80%)” value ([1]; minimum medium, 5th day of growth) was 1000 nM, the “concentration from which inhibition of growth is observed” value ([1]; minimum medium, from the 3rd day of growth) was at least 0.3 µM and the spore germination (M. grisea spores; 10 mM, in water or in minimum medium, at 24 and 72 hours) was “does not inhibit”. For the same compound, the spore germination (M. grisea spores; 1 and 3 μM, minimum medium, days 0 and 2) was “not blocked”, the “Level of sensitivity to IpOHA” value (Botrytis cinerea) was “Resistant” and the “effect on growth at the highest concentration used” value (Botrytis cinerea) was “not affected”. For the same compound, the “ID50: concentration which inhibits fungal growth by 50%” value (Pythium ultimum) was 10, the “ID80: concentration which inhibits fungal growth by 80%” value (Pythium ultimum) was 30 and the “Level of sensitivity to IpOHA” value (Pythium ultimum) was “Moderately sensitive”. For the same compound, the “concentration from which growth is inhibited” value (Pythium ultimum) was at least 10 µM, the “ID50: concentration which inhibits fungal growth by 50%” value (Ustilago nuda) was 3 and the “ID80: concentration which inhibits fungal growth by 80%” value (Ustilago nuda) was 30. The “IpOHA concentrations for which inhibition is lifted by isoleucine, leucine and valine” value (Ustilago nuda) was “less than 30 μM”, the “Level of sensitivity to IpOHA” value (Ustilago nuda) was “Moderately sensitive” and the “concentration from which growth is inhibited” value (Ustilago nuda) was at least 10 µM. For the same compound, the “ID50: concentration which inhibits fungal growth by 50%” value [4] was 1, the “ID80: concentration which inhibits fungal growth by 80%” value [4] was 3 and the “Level of sensitivity to IpOHA” value [4] was “Sensitive”. For the same compound, the “concentration from which growth is inhibited” value [4] was at least 0.3 µM, the “stoichiometry of binding of the inhibitor to the yeast reductoisomerase” value (yeast reductoisomerase [2]) was 1 mol of inhibitor per mole of enzyme and the “amount of enzyme above which an enzyme activity is detected” value (yeast reductoisomerase [2]; 0.1 nmol inhibitor, 20 min preincubation with NADPH and Mg2+) was “greater than 0.1 nmol”. The “type of inhibition (reversibility)” value (yeast reductoisomerase [2]) was “irreversible inhibitors”, the “mechanism of inhibition with respect to the AHB substrate” value (yeast reductoisomerase [3]) was “competitive” and the “k0, inhibitor/enzyme association constant” value (yeast reductoisomerase [3]) was 12 433 M^−1.s^−1. For the same compound, the “toxicity when minimum medium is supplemented with isoleucine, leucine and valine” value [5] was “lifted” and the “k0, inhibitor/enzyme association constant” value (plant reductoisomerase) was 1900 M⁻¹ s⁻¹.
